Measurements reported in paper PMC5218480 (PLoS ONE, 2017).

System: MV-4-11 cells
Experiment: Gene expression microarray analysis (Affymetrix PrimeView) and GSEA
Assay type: cell-based, human
Set-up: RFU PODN (11730768_x_at) / Fold change /veh PODN (11730768_x_at) / RFU LINC00158 (11744669_a_at) / Fold change /veh LINC00158 (11744669_a_at) / RFU DUSP10 (11751237_a_at) / Fold change /veh DUSP10 (11751237_a_at) / RFU ID3 (11757404_x_at) / Fold change /veh ID3 (11757404_x_at) / RFU PLEKHG5 (11737974_s_at) / Fold change /veh PLEKHG5 (11737974_s_at) / RFU LRRC4B (11730491_at) / Fold change /veh LRRC4B (11730491_at) / RFU GIMAP4 (11747438_a_at) / Fold change /veh GIMAP4 (11747438_a_at) / RFU KRT8 (11758183_x_at) / Fold change /veh KRT8 (11758183_x_at) / RFU CNN1 (11734310_a_at) / Fold change /veh CNN1 (11734310_a_at) / RFU VPS37D (11726825_at) / Fold change /veh VPS37D (11726825_at) / RFU C10orf10 (11716522_x_at) / Fold change /veh C10orf10 (11716522_x_at) / RFU KIR2DL2 /// KIR2DL4 /// KIR2DL5A /// KIR2DL5B /// KIR2DS1 /// KIR2DS2 /// KIR2DS3 /// KIR2DS4 /// KIR3DL3 /// KIR3DL3 /// KIR3DS1 (11738374_at) / Fold change /veh KIR2DL2 /// KIR2DL4 /// KIR2DL5A /// KIR2DL5B /// KIR2DS1 /// KIR2DS2 /// KIR2DS3 /// KIR2DS4 /// KIR3DL3 /// KIR3DL3 /// KIR3DS1 (11738374_at) / RFU C1QL1 (11718748_at) / Fold change /veh C1QL1 (11718748_at) / RFU TMPRSS4 (11747572_a_at) / Fold change /veh TMPRSS4 (11747572_a_at) / RFU HAMP (11756126_x_at) / Fold change /veh HAMP (11756126_x_at) / RFU RNFT2 (11725882_a_at) / Fold change /veh RNFT2 (11725882_a_at) / RFU NR4A2 (11747474_a_at) / Fold change /veh NR4A2 (11747474_a_at) / RFU ABCC12 (11746883_a_at) / Fold change /veh ABCC12 (11746883_a_at) / RFU TMEM136 (11760407_x_at) / Fold change /veh TMEM136 (11760407_x_at) / RFU CLDN22 /// WWC2 (11732394_at) / Fold change /veh CLDN22 /// WWC2 (11732394_at) / RFU HLA-DPB1 (11760878_x_at) / Fold change /veh HLA-DPB1 (11760878_x_at) / RFU SPINT1 (11716480_a_at) / Fold change /veh SPINT1 (11716480_a_at) / RFU GAP43 (11754022_s_at) / Fold change /veh GAP43 (11754022_s_at) / RFU A4GNT (11735810_at) / Fold change /veh A4GNT (11735810_at) / RFU PRB3 (11715151_x_at) / Fold change /veh PRB3 (11715151_x_at) / RFU TUBB4B (11761932_at) / Fold change /veh TUBB4B (11761932_at) / RFU CAPN14 (11732068_a_at) / Fold change /veh CAPN14 (11732068_a_at) / RFU TMCC2 (11721928_a_at) / Fold change /veh TMCC2 (11721928_a_at) / RFU IRGQ (11745062_a_at) / Fold change /veh IRGQ (11745062_a_at) / RFU FAM174B (11720279_a_at) / Fold change /veh FAM174B (11720279_a_at) / RFU TMPRSS4 (11748680_a_at) / Fold change /veh TMPRSS4 (11748680_a_at) / RFU FAM212B (11763350_a_at) / Fold change /veh FAM212B (11763350_a_at) / RFU PLEKHG5 (11743358_a_at) / Fold change /veh PLEKHG5 (11743358_a_at) / RFU ZSCAN30 (11745921_a_at) / Fold change /veh ZSCAN30 (11745921_a_at) / RFU CMKLR1 (11741424_a_at) / Fold change /veh CMKLR1 (11741424_a_at) / RFU LOC101060620 /// MAPK8IP1 (11723275_at) / Fold change /veh LOC101060620 /// MAPK8IP1 (11723275_at) / RFU SPTSSB (11747773_x_at) / Fold change /veh SPTSSB (11747773_x_at) / RFU PRSS12 (11739890_at) / Fold change /veh PRSS12 (11739890_at) / RFU BIN1 (11741810_x_at) / Fold change /veh BIN1 (11741810_x_at) / RFU WNT11 (11732464_a_at) / Fold change /veh WNT11 (11732464_a_at) / RFU C10orf10 (11716521_a_at) / Fold change /veh C10orf10 (11716521_a_at) / RFU C5orf56 (11738089_at) / Fold change /veh C5orf56 (11738089_at) / RFU CYB561 (11721691_x_at) / Fold change /veh CYB561 (11721691_x_at) / RFU ANKRD19P (11752326_a_at) / Fold change /veh ANKRD19P (11752326_a_at) / RFU OR2T12 /// OR2T33 /// OR2T8 (11738714_s_at) / Fold change /veh OR2T12 /// OR2T33 /// OR2T8 (11738714_s_at) / RFU VCAN (11748164_a_at) / Fold change /veh VCAN (11748164_a_at) / RFU JSRP1 (11732532_at) / Fold change /veh JSRP1 (11732532_at) / RFU KRTAP10-11 (11738290_x_at) / Fold change /veh KRTAP10-11 (11738290_x_at) / RFU MYO3A (11730013_a_at) / Fold change /veh MYO3A (11730013_a_at) / RFU EBF3 (11725865_a_at) / Fold change /veh EBF3 (11725865_a_at) / RFU CAMK2N1 (11719241_x_at) / Fold change /veh CAMK2N1 (11719241_x_at) / RFU C5orf56 (11738088_a_at) / Fold change /veh C5orf56 (11738088_a_at) / RFU OLFML3 (11715873_a_at) / Fold change /veh OLFML3 (11715873_a_at) / RFU LOC100653217 /// NTM (11731650_a_at) / Fold change /veh LOC100653217 /// NTM (11731650_a_at) / RFU MAPK11 (11762145_a_at) / Fold change /veh MAPK11 (11762145_a_at) / RFU FIZ1 (11724087_x_at) / Fold change /veh FIZ1 (11724087_x_at) / RFU OASL (11726364_x_at) / Fold change /veh OASL (11726364_x_at) / RFU SOX15 (11748057_x_at) / Fold change /veh SOX15 (11748057_x_at) / RFU CD79A (11719716_a_at) / Fold change /veh CD79A (11719716_a_at) / RFU HIST1H1D (11736915_at) / Fold change /veh HIST1H1D (11736915_at) / RFU CASKIN2 (11723855_a_at) / Fold change /veh CASKIN2 (11723855_a_at) / RFU LOC730098 (11760151_x_at) / Fold change /veh LOC730098 (11760151_x_at) / RFU OR4N2 (11742367_at) / Fold change /veh OR4N2 (11742367_at) / RFU PRRT2 (11749266_a_at) / Fold change /veh PRRT2 (11749266_a_at) / RFU SNX32 (11753110_a_at) / Fold change /veh SNX32 (11753110_a_at) / RFU CDHR5 (11726645_a_at) / Fold change /veh CDHR5 (11726645_a_at) / RFU RCAN1 (11760418_a_at) / Fold change /veh RCAN1 (11760418_a_at) / RFU FAM167A (11723789_a_at) / Fold change /veh FAM167A (11723789_a_at) / RFU FAM26E (11764081_at) / Fold change /veh FAM26E (11764081_at) / RFU ISYNA1 (11749810_s_at) / Fold change /veh ISYNA1 (11749810_s_at) / RFU ACY1 (11761880_at) / Fold change /veh ACY1 (11761880_at) / RFU 11764098_at / Fold change /veh 11764098_at / RFU SAMD14 (11745864_x_at) / Fold change /veh SAMD14 (11745864_x_at) / RFU NPB (11741838_a_at) / Fold change /veh NPB (11741838_a_at) / RFU TMPRSS6 (11731388_a_at) / Fold change /veh TMPRSS6 (11731388_a_at) / RFU KRTAP10-2 (11738614_at) / Fold change /veh KRTAP10-2 (11738614_at) / RFU ARHGAP8 /// PRR5-ARHGAP8 (11727945_x_at) / Fold change /veh ARHGAP8 /// PRR5-ARHGAP8 (11727945_x_at) / RFU KRTAP5-7 /// NADSYN1 (11734609_at) / Fold change /veh KRTAP5-7 /// NADSYN1 (11734609_at) / RFU RASL12 (11751679_a_at) / Fold change /veh RASL12 (11751679_a_at) / RFU CDKN2B (11736163_a_at) / Fold change /veh CDKN2B (11736163_a_at) / RFU PRF1 (11729649_at) / Fold change /veh PRF1 (11729649_at) / RFU, ZNF638 /// ZNF638-IT1 / Fold change vs veh, ZNF638 /// ZNF638-IT1 / RFU, PANK3 / Fold change vs veh, PANK3 / RFU, SH3YL1 / Fold change vs veh, SH3YL1 / RFU, ZEB2 / Fold change vs veh, ZEB2 / RFU, NRIP1 / Fold change vs veh, NRIP1 / RFU, PTTG1IP / Fold change vs veh, PTTG1IP / RFU, CAPN2 / Fold change vs veh, CAPN2 / RFU, MED14 / Fold change vs veh, MED14 / RFU, SNORA58 / Fold change vs veh, SNORA58 / RFU, C1orf63 / Fold change vs veh, C1orf63 / RFU, LRRFIP1 / Fold change vs veh, LRRFIP1 / RFU, NDUFAF7 / Fold change vs veh, NDUFAF7 / RFU, SLC12A2 / Fold change vs veh, SLC12A2 / RFU, IBTK / Fold change vs veh, IBTK / RFU, ESF1 / Fold change vs veh, ESF1 / Fold change vs veh, TMEM50B / RFU, TAOK1 / Fold change vs veh, TAOK1 / RFU, ACBD3 / Fold change vs veh, ACBD3 / RFU, TMA16 / Fold change vs veh, TMA16 / RFU, RWDD3 / Fold change vs veh, RWDD3 / RFU, BCAT1 / Fold change vs veh, BCAT1 / RFU, EDEM3 / Fold change vs veh, EDEM3 / RFU, TMEM33 / Fold change vs veh, TMEM33 / RFU, WDR75 / Fold change vs veh, WDR75 / RFU, AHCTF1 / Fold change vs veh, AHCTF1 / RFU, TFRC / Fold change vs veh, TFRC / RFU, ZDHHC17 / Fold change vs veh, ZDHHC17 / RFU, NOM1 / Fold change vs veh, NOM1 / RFU, ARL8B / Fold change vs veh, ARL8B / RFU, ZBTB11 / Fold change vs veh, ZBTB11 / RFU, TAMM41 / Fold change vs veh, TAMM41 / RFU, KIAA1704 /// LOC100996395 / Fold change vs veh, KIAA1704 /// LOC100996395 / RFU, ING1 / Fold change vs veh, ING1 / RFU, TRMT61B / Fold change vs veh, TRMT61B / RFU, FUBP3 / Fold change vs veh, FUBP3 / RFU, TP53 / Fold change vs veh, TP53 / RFU, TNKS2 / Fold change vs veh, TNKS2 / RFU, ZFP14 / Fold change vs veh, ZFP14 / RFU, ACTR2 / Fold change vs veh, ACTR2 / RFU, PPP3R1 / Fold change vs veh, PPP3R1 / RFU, PIK3R1 / Fold change vs veh, PIK3R1 / RFU, HNRNPA1 / Fold change vs veh, HNRNPA1 / RFU, RNF170 / Fold change vs veh, RNF170 / RFU, ZNF28 / Fold change vs veh, ZNF28 / RFU, RNGTT / Fold change vs veh, RNGTT / RFU, OGT / Fold change vs veh, OGT / RFU, BRD1 / Fold change vs veh, BRD1 / RFU, MARS / Fold change vs veh, MARS / RFU, ZNF655 / Fold change vs veh, ZNF655 / RFU, FAHD1 / Fold change vs veh, FAHD1 / RFU, BDP1 / Fold change vs veh, BDP1 / RFU, LRRCC1 / Fold change vs veh, LRRCC1 / RFU, ARID1A / Fold change vs veh, ARID1A / RFU, ZNF146 / Fold change vs veh, ZNF146 / RFU, ZNF330 / Fold change vs veh, ZNF330 / RFU, GPN3 / Fold change vs veh, GPN3 / RFU, C9orf123 / Fold change vs veh, C9orf123 / RFU, N4BP2L2 / Fold change vs veh, N4BP2L2 / RFU, ARFIP1 / Fold change vs veh, ARFIP1 / RFU, FAM179B / Fold change vs veh, FAM179B / RFU, BCL10 / Fold change vs veh, BCL10 / RFU, UHRF1BP1L / Fold change vs veh, UHRF1BP1L / RFU, BET1 / Fold change vs veh, BET1 / RFU, CNOT2 / Fold change vs veh, CNOT2 / RFU, ZNF268 / Fold change vs veh, ZNF268 / Fold change vs veh, ZNF507 / RFU, DGCR2 / Fold change vs veh, DGCR2 / RFU, WDSUB1 / Fold change vs veh, WDSUB1 / Fold change vs veh, HSP90B1 /// MIR3652 / RFU, ADSS / Fold change vs veh, ADSS / RFU, GK / Fold change vs veh, GK / RFU, ZNF148 / Fold change vs veh, ZNF148 / RFU, TAF9 / Fold change vs veh, TAF9 / RFU, SLC1A5 / Fold change vs veh, SLC1A5 / RFU, SLMO2 / Fold change vs veh, SLMO2 / RFU, ABCC4 / Fold change vs veh, ABCC4 / RFU, LOC101060439 /// RAP1B / Fold change vs veh, LOC101060439 /// RAP1B / RFU, RFX7 / Fold change vs veh, RFX7 / RFU, GTPBP10 / Fold change vs veh, GTPBP10 / RFU, CNEP1R1 / Fold change vs veh, CNEP1R1 / RFU, BIVM-ERCC5 /// ERCC5 / Fold change vs veh, BIVM-ERCC5 /// ERCC5 / RFU, ILF3 / Fold change vs veh, ILF3 / RFU 11762660_at / Fold change /veh 11762660_at / RFU VCAN (11757783_s_at) / Fold change /veh VCAN (11757783_s_at) / RFU DDX43 (11728927_at) / Fold change /veh DDX43 (11728927_at) / RFU KRT8 (11758188_x_at) / Fold change /veh KRT8 (11758188_x_at) / RFU NKD1 (11759106_at) / Fold change /veh NKD1 (11759106_at) / RFU SRD5A1 (11742802_a_at) / Fold change /veh SRD5A1 (11742802_a_at) / RFU TPSAB1 /// TPSB2 (11721975_s_at) / Fold change /veh TPSAB1 /// TPSB2 (11721975_s_at) / RFU GSTM3 (11746129_a_at) / Fold change /veh GSTM3 (11746129_a_at) / RFU IL23R (11737362_x_at) / Fold change /veh IL23R (11737362_x_at) / RFU TMEM51 (11727254_a_at) / Fold change /veh TMEM51 (11727254_a_at) / RFU PIWIL2 (11732686_x_at) / Fold change /veh PIWIL2 (11732686_x_at) / RFU ORM1 (11744905_x_at) / Fold change /veh ORM1 (11744905_x_at) / RFU CCDC152 (11743942_at) / Fold change /veh CCDC152 (11743942_at) / RFU ECM1 (11717891_a_at) / Fold change /veh ECM1 (11717891_a_at) / RFU IL23R (11748794_a_at) / Fold change /veh IL23R (11748794_a_at) / RFU TNFAIP8L3 (11732012_x_at) / Fold change /veh TNFAIP8L3 (11732012_x_at) / RFU MBOAT4 (11741988_at) / Fold change /veh MBOAT4 (11741988_at) / RFU 11764193_at / Fold change /veh 11764193_at / RFU TMEM53 (11763286_at) / Fold change /veh TMEM53 (11763286_at) / RFU MAGEB2 (11727129_at) / Fold change /veh MAGEB2 (11727129_at) / RFU TMEM200A (11744735_a_at) / Fold change /veh TMEM200A (11744735_a_at) / RFU CCDC152 (11751479_a_at) / Fold change /veh CCDC152 (11751479_a_at) / RFU FAM211A (11726209_a_at) / Fold change /veh FAM211A (11726209_a_at) / RFU RGS16 (11746705_a_at) / Fold change /veh RGS16 (11746705_a_at) / RFU VCAN (11755009_s_at) / Fold change /veh VCAN (11755009_s_at) / RFU RHOB (11743442_s_at) / Fold change /veh RHOB (11743442_s_at) / RFU RGS16 (11720943_a_at) / Fold change /veh RGS16 (11720943_a_at) / RFU RGS16 (11720944_at) / Fold change /veh RGS16 (11720944_at) / RFU, VPS4B / Fold change vs veh, VPS4B / RFU, CREB1 / Fold change vs veh, CREB1 / RFU, DNAJC13 / Fold change vs veh, DNAJC13 / RFU, GNAQ / Fold change vs veh, GNAQ / RFU, CDK5R1 / Fold change vs veh, CDK5R1 / RFU, ZRANB3 / Fold change vs veh, ZRANB3 / RFU, CUL4A / Fold change vs veh, CUL4A / RFU, CCNY / Fold change vs veh, CCNY / RFU, UFL1 / Fold change vs veh, UFL1 / RFU, COG3 / Fold change vs veh, COG3 / RFU, DIAPH2 / Fold change vs veh, DIAPH2 / RFU, SKA2 / Fold change vs veh, SKA2 / RFU, AFF3 / Fold change vs veh, AFF3 / RFU, LMF1 / Fold change vs veh, LMF1 / RFU, IPO11 / Fold change vs veh, IPO11 / RFU, DFFB / Fold change vs veh, DFFB / RFU, FOXP1 / Fold change vs veh, FOXP1 / RFU, CARD8 / Fold change vs veh, CARD8 / RFU, STRN3 / Fold change vs veh, STRN3 / RFU, ADK / Fold change vs veh, ADK / RFU, RASSF2 / Fold change vs veh, RASSF2 / RFU, WIPF1 / Fold change vs veh, WIPF1 / RFU, LARP1B / Fold change vs veh, LARP1B / RFU, RASA1 / Fold change vs veh, RASA1 / RFU, RB1 / Fold change vs veh, RB1 / RFU, PPFIA1 / Fold change vs veh, PPFIA1 / RFU, MAT2A / Fold change vs veh, MAT2A / RFU, CCT5 / Fold change vs veh, CCT5 / RFU, WDR92 / Fold change vs veh, WDR92 / RFU, CUX1 / Fold change vs veh, CUX1 / RFU, TTC7A / Fold change vs veh, TTC7A / RFU, TMEM135 / Fold change vs veh, TMEM135 / RFU, DEPTOR / Fold change vs veh, DEPTOR / RFU, CPM / Fold change vs veh, CPM / RFU, DNAJB6 / Fold change vs veh, DNAJB6 / RFU, CACNA2D3 / Fold change vs veh, CACNA2D3 / RFU, DTX4 / Fold change vs veh, DTX4 / RFU, TFCP2 / Fold change vs veh, TFCP2 / RFU, GMCL1 /// GMCL1P1 / Fold change vs veh, GMCL1 /// GMCL1P1 / RFU, AEBP2 / Fold change vs veh, AEBP2 / RFU, SNHG1 /// SNORD22 /// SNORD25 /// SNORD26 /// SNORD27 /// SNORD28 /// SNORD29 /// SNORD31 / Fold change vs veh, SNHG1 /// SNORD22 /// SNORD25 /// SNORD26 /// SNORD27 /// SNORD28 /// SNORD29 /// SNORD31 / Fold change (Aza/veh), C12orf56 (ProbeSet 11735607_a_at) / Fold change (ACY-1035/veh), C12orf56 (ProbeSet 11735607_a_at) / Fold change (Aza/veh), FGFR1OP (ProbeSet 11751329_s_at) / Fold change (ACY-1035/veh), FGFR1OP (ProbeSet 11751329_s_at) / Fold change (Aza/veh), VPS36 (ProbeSet 11739960_a_at) / Fold change (ACY-1035/veh), VPS36 (ProbeSet 11739960_a_at) / RFU SYPL1 (11715823_x_at) / Fold change /veh SYPL1 (11715823_x_at) / RFU IGFBP7 (11715501_s_at) / Fold change /veh IGFBP7 (11715501_s_at) / RFU REEP3 (11722064_at) / Fold change /veh REEP3 (11722064_at) / RFU IGLL1 (11728026_x_at) / Fold change /veh IGLL1 (11728026_x_at): dose or concentration left out as unconfirmed
Settings: ProbeSet 11721521_at; LIST B

SMILES: Nc1ccc(-c2cccs2)cc1NC(=O)c1ccc2c(c1)cc(C1CC1)n2CCN1CCOCC1 [ACY-1035]
- RFU, ZDHHC17: 49.20 RFU
